Earlier results on 1 molecule are cited in US20040204492A1, “Topical composition and method for treating seborrheic dermatitis” (Healthpoint, Ltd., priority 2003, published 2004).

In this series the test system is sulfonamide sensitive gram-positive and gram-negative microorganisms. The settings on record: microorganisms commonly isolated from secondary cutaneous infections.

Regarding `CC(=O)NS(=O)(=O)c1ccc(N)cc1.O.[Na]` [Sulfacetamide sodium, Acetamide N-[(4-aminophenyl)sulfonyl]-, monosodium salt, monohydrate], the bacteriostatic effect result was “exerts a bacteriostatic effect”.
